pIC50: −log10 of the molar value.
System: OVCAR-5 complex spheroids with HUVEC/MSC, viability, % test/control
Experiment: Anticancer human tumor OVCAR-5 cell line growth inhibition [AhR];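 further: spheroids exposed to compounds for 7 days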;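 on viability, T/C: 100% = DMSO vehicle control wells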
Settings: for pIC50: curve of first compound; for viability, T/C: stronger effect = lower value; active means viability on the fitted dose curve at most 10% of control; inactive means the rest
In short: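 Complex tumor spheroids co-cultured with HUVEC and human MSC stroma; AhR antagonists tested in combination with standard-of-care and investigational agents. Top concentration at or near clinical Cmax (else 10 microM), half-log dilutions; growth expressed as percent test/control.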

[1] = second compound 0.1 µM, first compound 0.0316 µM
[2] = second compound 0.1 µM, first compound 0.1 µM
[3] = second compound 0.1 µM, first compound 0.316 µM
[4] = second compound 0.1 µM, first compound 1 µM
[5] = second compound 0.316 µM, first compound 0.0316 µM
[6] = second compound 0.316 µM, first compound 0.1 µM
[7] = second compound 0.316 µM, first compound 0.316 µM
[8] = second compound 0.316 µM, first compound 1 µM
[9] = second compound 1 µM, first compound 0.0316 µM
[10] = second compound 1 µM, first compound 0.1 µM
[11] = second compound 1 µM, first compound 0.316 µM
[12] = second compound 1 µM, first compound 1 µM
[13] = second compound 3.16 µM, first compound 0.0316 µM
[14] = second compound 3.16 µM, first compound 0.1 µM
[15] = second compound 3.16 µM, first compound 0.316 µM
[16] = second compound 3.16 µM, first compound 1 µM
[17] = second compound 10 µM, first compound 0.0316 µM
[18] = second compound 10 µM, first compound 0.1 µM
[19] = second compound 10 µM, first compound 0.316 µM
[20] = second compound 10 µM, first compound 1 µM
[21] = second compound 0.1 µM, first compound 3.16 µM
[22] = second compound 0.1 µM, first compound 10 µM
[23] = second compound 0.316 µM, first compound 3.16 µM
[24] = second compound 0.316 µM, first compound 10 µM
[25] = second compound 1 µM, first compound 3.16 µM
[26] = second compound 1 µM, first compound 10 µM
[27] = second compound 3.16 µM, first compound 3.16 µM
[28] = second compound 3.16 µM, first compound 10 µM
[29] = second compound 10 µM, first compound 3.16 µM
[30] = second compound 10 µM, first compound 10 µM
[31] = second compound 0.1 µM, first compound 0.00949 µM
[32] = second compound 0.1 µM, first compound 0.03 µM
[33] = second compound 0.1 µM, first compound 0.0949 µM
[34] = second compound 0.1 µM, first compound 0.3 µM
[35] = second compound 0.316 µM, first compound 0.00949 µM
[36] = second compound 0.316 µM, first compound 0.03 µM
[37] = second compound 0.316 µM, first compound 0.0949 µM
[38] = second compound 0.316 µM, first compound 0.3 µM
[39] = second compound 1 µM, first compound 0.00949 µM
[40] = second compound 1 µM, first compound 0.03 µM
[41] = second compound 1 µM, first compound 0.0949 µM
[42] = second compound 1 µM, first compound 0.3 µM
[43] = second compound 3.16 µM, first compound 0.00949 µM
[44] = second compound 3.16 µM, first compound 0.03 µM
[45] = second compound 3.16 µM, first compound 0.0949 µM
[46] = second compound 3.16 µM, first compound 0.3 µM
[47] = second compound 10 µM, first compound 0.00949 µM
[48] = second compound 10 µM, first compound 0.03 µM
[49] = second compound 10 µM, first compound 0.0949 µM
[50] = second compound 10 µM, first compound 0.3 µM

CC1COCCN1c1cc(-c2ccnn2C)c2ccnc(-c3ccn[nH]3)c2n1 (stereo not given) + Cc1cncc(-c2nc(NCCc3c[nH]c4ccccc34)c3ncn(C(C)C)c3n2)c1
active: viability, T/C [19] 6.62% | viability, T/C [20] 7.97%
6.56: pIC50 (second compound 0.1 µM)
inactive: viability, T/C (second compound 0.1 µM, first compound 0.00316 µM) 107% | viability, T/C (second compound 0.1 µM, first compound 0.01 µM) 103% | viability, T/C [1] 103% | viability, T/C [2] 83% | viability, T/C [3] 45.2% | viability, T/C [4] 32.9% | viability, T/C (second compound 0.316 µM, first compound 0.00316 µM) 106% | viability, T/C (second compound 0.316 µM, first compound 0.01 µM) 104% | viability, T/C [5] 105% | viability, T/C [6] 85% | viability, T/C [7] 46.3% | viability, T/C [8] 32.9% | viability, T/C (second compound 1 µM, first compound 0.00316 µM) 97.3% | viability, T/C (second compound 1 µM, first compound 0.01 µM) 99.2% | viability, T/C [9] 100% | viability, T/C [10] 78.2% | viability, T/C [11] 45.6% | viability, T/C [12] 33.9% | viability, T/C (second compound 3.16 µM, first compound 0.00316 µM) 80.8% | viability, T/C (second compound 3.16 µM, first compound 0.01 µM) 87.4% | viability, T/C [13] 84.2% | viability, T/C [14] 65.2% | viability, T/C [15] 36.5% | viability, T/C [16] 30.1% | viability, T/C (second compound 10 µM, first compound 0.00316 µM) 12.8% | viability, T/C (second compound 10 µM, first compound 0.01 µM) 12.8% | viability, T/C [17] 13.7% | viability, T/C [18] 10.6%
> 8.50: pIC50 (second compound 10 µM)
6.55: pIC50 (second compound 0.316 µM)
6.58: pIC50 (second compound 1 µM)
6.74: pIC50 (second compound 3.16 µM)

CC1COCCN1c1cc(C2(S(C)(=N)=O)CC2)nc(-c2ccnc3[nH]ccc23)n1 (stereo not given) + Cc1cncc(-c2nc(NCCc3c[nH]c4ccccc34)c3ncn(C(C)C)c3n2)c1
5.23: pIC50 (second compound 3.16 µM)
5.01: pIC50 (second compound 0.1 µM)
5.02: pIC50 (second compound 1 µM)
inactive: viability, T/C [1] 99.4% | viability, T/C [2] 102% | viability, T/C [3] 106% | viability, T/C [4] 101% | viability, T/C [21] 92% | viability, T/C [22] 49.1% | viability, T/C [5] 99.6% | viability, T/C [6] 98.4% | viability, T/C [7] 99.3% | viability, T/C [8] 103% | viability, T/C [23] 90% | viability, T/C [24] 51.6% | viability, T/C [9] 92% | viability, T/C [10] 95.6% | viability, T/C [11] 94.9% | viability, T/C [12] 96.4% | viability, T/C [25] 86% | viability, T/C [26] 48.5% | viability, T/C [13] 74.5% | viability, T/C [14] 79.2% | viability, T/C [15] 80.5% | viability, T/C [16] 82.4% | viability, T/C [27] 62.6% | viability, T/C [28] 38.9% | viability, T/C [17] 19.6% | viability, T/C [18] 22.8% | viability, T/C [19] 22.9% | viability, T/C [20] 18.6% | viability, T/C [29] 12.7%
active: viability, T/C [30] 6.44%
> 7.50: pIC50 (second compound 10 µM)
< 5.00: pIC50 (second compound 0.316 µM)

COc1ccc([C@@H](O)c2cc(-c3ncnc4cc(N5CCOCC5)ccc34)c(F)cc2Cl)nn1 + Cc1cncc(-c2nc(NCCc3c[nH]c4ccccc34)c3ncn(C(C)C)c3n2)c1
active: viability, T/C [20] 7.42% | viability, T/C [29] 4.87% | viability, T/C [30] 3.46%
5.49: pIC50 (second compound 0.1 µM)
inactive: viability, T/C [1] 104% | viability, T/C [2] 104% | viability, T/C [3] 100% | viability, T/C [4] 80.9% | viability, T/C [21] 50.9% | viability, T/C [22] 28.8% | viability, T/C [5] 104% | viability, T/C [6] 103% | viability, T/C [7] 94% | viability, T/C [8] 80% | viability, T/C [23] 52% | viability, T/C [24] 29.1% | viability, T/C [9] 98.7% | viability, T/C [10] 101% | viability, T/C [11] 95% | viability, T/C [12] 74.9% | viability, T/C [25] 47.1% | viability, T/C [26] 28.8% | viability, T/C [13] 83.5% | viability, T/C [14] 83.3% | viability, T/C [15] 79.8% | viability, T/C [16] 59.9% | viability, T/C [27] 36.5% | viability, T/C [28] 20% | viability, T/C [17] 14.2% | viability, T/C [18] 13.6% | viability, T/C [19] 12.2%
5.78: pIC50 (second compound 3.16 µM)
5.56: pIC50 (second compound 1 µM)
5.45: pIC50 (second compound 0.316 µM)
> 7.50: pIC50 (second compound 10 µM)

Nc1ncn(C2CC(O)C(CO)S2)c(=O)n1 (stereo not given) + Cc1cncc(-c2nc(NCCc3c[nH]c4ccccc34)c3ncn(C(C)C)c3n2)c1
inactive: viability, T/C (second compound 0.1 µM, first compound 0.000949 µM) 99.8% | viability, T/C (second compound 0.1 µM, first compound 0.003 µM) 101% | viability, T/C [31] 102% | viability, T/C [32] 98.4% | viability, T/C [33] 85.9% | viability, T/C [34] 80.6% | viability, T/C (second compound 0.316 µM, first compound 0.000949 µM) 99.1% | viability, T/C (second compound 0.316 µM, first compound 0.003 µM) 101% | viability, T/C [35] 96.8% | viability, T/C [36] 93.1% | viability, T/C [37] 85.5% | viability, T/C [38] 78.2% | viability, T/C (second compound 1 µM, first compound 0.000949 µM) 87.8% | viability, T/C (second compound 1 µM, first compound 0.003 µM) 88.7% | viability, T/C [39] 89.7% | viability, T/C [40] 79.7% | viability, T/C [41] 75.4% | viability, T/C [42] 70.9% | viability, T/C (second compound 3.16 µM, first compound 0.000949 µM) 75.4% | viability, T/C (second compound 3.16 µM, first compound 0.003 µM) 76.3% | viability, T/C [43] 75.5% | viability, T/C [44] 79.6% | viability, T/C [45] 63.2% | viability, T/C [46] 62.7% | viability, T/C (second compound 10 µM, first compound 0.000949 µM) 18.3% | viability, T/C (second compound 10 µM, first compound 0.003 µM) 17.9% | viability, T/C [47] 18% | viability, T/C [48] 15.2% | viability, T/C [49] 14.3% | viability, T/C [50] 15.1%
> 9.02: pIC50 (second compound 10 µM)
< 6.52: pIC50 (second compound 0.1 µM) | pIC50 (second compound 0.316 µM) | pIC50 (second compound 1 µM) | pIC50 (second compound 3.16 µM)

O=C(C=Cn1cnc(-c2cc(C(F)(F)F)cc(C(F)(F)F)c2)n1)NNc1cnccn1 + Cc1cncc(-c2nc(NCCc3c[nH]c4ccccc34)c3ncn(C(C)C)c3n2)c1
5.61: pIC50 (second compound 1 µM)
> 8.02: pIC50 (second compound 10 µM)
< 5.52: pIC50 (second compound 0.316 µM)
5.84: pIC50 (second compound 3.16 µM)
inactive: viability, T/C [31] 105% | viability, T/C [32] 108% | viability, T/C [33] 102% | viability, T/C [34] 87.4% | viability, T/C (second compound 0.1 µM, first compound 0.949 µM) 67.7% | viability, T/C (second compound 0.1 µM, first compound 3 µM) 48.4% | viability, T/C [35] 107% | viability, T/C [36] 109% | viability, T/C [37] 107% | viability, T/C [38] 86.4% | viability, T/C (second compound 0.316 µM, first compound 0.949 µM) 68.9% | viability, T/C (second compound 0.316 µM, first compound 3 µM) 49.8% | viability, T/C [39] 105% | viability, T/C [40] 108% | viability, T/C [41] 106% | viability, T/C [42] 89.4% | viability, T/C (second compound 1 µM, first compound 0.949 µM) 71% | viability, T/C (second compound 1 µM, first compound 3 µM) 45.3% | viability, T/C [43] 98.1% | viability, T/C [44] 99.5% | viability, T/C [45] 99.6% | viability, T/C [46] 79.8% | viability, T/C (second compound 3.16 µM, first compound 0.949 µM) 62% | viability, T/C (second compound 3.16 µM, first compound 3 µM) 31.8% | viability, T/C [47] 16.3% | viability, T/C [48] 15% | viability, T/C [49] 15.9% | viability, T/C [50] 16.4% | viability, T/C (second compound 10 µM, first compound 0.949 µM) 13.3% | viability, T/C (second compound 10 µM, first compound 3 µM) 12.6%
5.56: pIC50 (second compound 0.1 µM)

Source: PubChem BioAssay AID1919015 (Molecular Pharmacology Branch, DTP, NCI, 2023)
